Measured values as given in ChEMBL document CHEMBL4371020, “Synthesis and biological evaluation of 1H-pyrrolo[2,3-d]pyrimidine-1,2,3-triazole derivatives as novel anti-tubercular agents” (2019).
Values after ≈ are worked out from the molar mass of the structure shown.

test system: Mycobacterium tuberculosis; experiment: Antimicrobial activity against Mycobacterium tuberculosis H37Rv after 7 days by microplate alamar blue assay; assay type: functional; details: 168 h

| SMILES | MIC [µg/mL] |
| --- | --- |
| c1ccc(-c2cc(Cn3cc(Cn4ccc5cncnc54)nn3)on2)cc1 | 0.78 (≈ 2.18 µM) |
| Fc1ccc(-c2cc(Cn3cc(Cn4ccc5cncnc54)nn3)on2)cc1 | 0.78 (≈ 2.08 µM) |
| c1ccc(Sc2ccccc2-n2cc(Cn3ccc4cncnc43)nn2)cc1 | 6.25 (≈ 16.3 µM) |
| Fc1ccc(Cn2cc(Cn3ccc4cncnc43)nn2)cc1 | > 25 |
| O=[N+]([O-])c1ccc(Cn2cc(Cn3ccc4cncnc43)nn2)cc1 | > 25 |
| Brc1ccccc1Cn1cc(Cn2ccc3cncnc32)nn1 | > 25 |
| COc1cccc(-n2cc(Cn3ccc4cncnc43)nn2)c1[N+](=O)[O-] | 25 (≈ 71.2 µM) |
| Fc1ccc(Oc2ccc(Cn3cc(Cn4ccc5cncnc54)nn3)cc2)cc1 | 3.12 (≈ 7.79 µM) |
| O=c1oc2ccccc2cc1-n1cc(Cn2ccc3cncnc32)nn1 | 3.12 (≈ 9.06 µM) |
| COc1ccc(Cn2cc(Cn3ccc4cncnc43)nn2)cc1 | > 25 |
| Oc1ccccc1-n1cc(Cn2ccc3cncnc32)nn1 | 6.25 (≈ 21.4 µM) |
| CCOC(=O)/C=C/Cn1cc(Cn2ccc3cncnc32)nn1 | > 25 |
| c1ccc(Cn2cc(Cn3ccc4cncnc43)nn2)cc1 | > 25 |
| Fc1ccccc1Cn1cc(Cn2ccc3cncnc32)nn1 | > 25 |
| Clc1ccc(Cn2cc(Cn3ccc4cncnc43)nn2)cc1 | 3.12 (≈ 9.61 µM) |
| C=CCn1cc(Cn2ccc3cncnc32)nn1 | 6.25 (≈ 26 µM) |
| O=[N+]([O-])c1ccc(-n2cc(Cn3ccc4cncnc43)nn2)cc1 | > 25 |
| Cc1onc(-c2ccccc2)c1Cn1cc(Cn2ccc3cncnc32)nn1 | 6.25 (≈ 16.8 µM) |
| Clc1ccc(Oc2ccccc2)cc1-n1cc(Cn2ccc3cncnc32)nn1 | 6.25 (≈ 15.5 µM) |
| COC(=O)CCn1cc(Cn2ccc3cncnc32)nn1 | 1.56 (≈ 5.45 µM) |
| c1ccc(-c2cc(Cn3cc(Cn4ccc5cncnc54)nn3)cc(-c3ccccc3)n2)cc1 | 6.25 (≈ 14.1 µM) |
| Fc1cccc(-n2cc(Cn3ccc4cncnc43)nn2)c1 | > 25 |
| Brc1ccc(Cn2cc(Cn3ccc4cncnc43)nn2)cc1 | > 25 |
| Clc1ccc(-n2cc(Cn3ccc4cncnc43)nn2)cc1 | 25 (≈ 80.5 µM) |
| O=C(O)c1cn(C2CC2)c2cc(N3CCNCC3)c(F)cc2c1=O [CIPROFLOXACIN] | 1.56 (≈ 4.71 µM) |
| CC[C@@H](CO)NCCN[C@@H](CC)CO [ETHAMBUTOL] | 1.56 (≈ 7.64 µM) |
| NNC(=O)c1ccncc1 [ISONIAZID] | 0.1 (≈ 0.729 µM) |
| CO[C@H]1/C=C/O[C@@]2(C)Oc3c(C)c(O)c4c(O)c(c(/C=N/N5CCN(C)CC5)c(O)c4c3C2=O)NC(=O)/C(C)=C\C=C\[C@H](C)[C@H](O)[C@@H](C)[C@@H](O)[C@@H](C)[C@H](OC(C)=O)[C@@H]1C [RIFAMPIN] | 0.2 (≈ 0.243 µM) |
